According to paper PMC11206988, “Study on the Effect of Pharmaceutical Excipient PEG400 on the Pharmacokinetics of Baicalin in Cells Based on MRP2, MRP3, and BCRP Efflux Transporters” (Pharmaceutics, 2024):
Like-named read-outs stand apart in the source and are kept apart here.

Experiments:
Assay type in all cases: in vitro ADME
MRP3 = biological target: T1, MRP3 (Homo sapiens, UniProt O15438); assay: Transport of baicalin across MDCK II-MRP3 cell monolayer (transwell); conditions: human, pH 7.4, MDCK II-MRP3
T1 construct: host or cells: MDCK II
Protocol: (§1) The cells were inoculated at a density of 0.5 mL (1 × 10^5) in the upper layer of the transwell plate (AP side), and the culture was changed daily after the lower layer was added with 1.5 mL of complete medium without cells every other day. After 5–7 days of growth, the supernatant was aspirated and discarded, and the cell monolayer was rinsed twice with 37 °C Hank’s Balanced Salt Solution (HBSS, pH 7.4). The electrical resistance of the cell monolayer compartments was measured with a resistivity meter (TEER), and the integrity of the cell monolayer was monitored using TEER. The differentiation of MDCK II-WT, MDCK II-MRP2, MDCK II-MRP3, and MDCK II-BCRP cells was examined by determining sodium fluorescein permeability prior to transit experiments. This was done in order to determine the integrity of the cell monolayer. When the TEER value of the cell monolayer was greater than 150 Ω·cm^2 and the MDCK II-MRP2, MDCK II-MRP3, and MDCK II-BCRP sodium fluorescein permeability was less than 0.5 × 10^−6 cm/s or the MDCK II-WT sodium fluorescein permeability was less than 1 × 10^−6 cm/s, the cell monolayer was considered intact and suitable for transit experiments. TEER = (TEERcell monolayer − TEERblank) × Aarea(1) wherein TEERcell monolayer is the resistance of the cell monolayer read directly from the Millicell ERS-2 resistivity meter, and TEERblank is the resistance read by inserting a blank HBSS (no cells) only. Aarea is the surface area of the filter membrane, 1.12 cm^2.
(§2) In this experiment, a 100 μM baicalin solution (dissolved in HBSS) containing different concentrations of PEG400 (0.25%, 0.5%, and 1%) was employed as the test solution, while a solution without PEG400 was used as the blank test solution, which was added to AP or BL chambers, respectively. In the top to basolateral (AP-BL) transport experiment, the 0.5 mL sample added to the apical side (AP) was utilized as the supply room, and the HBSS preheated to 1.5 mL 37 °C was added to the basolateral (BL) as the receiving chamber. Conversely, in the basal low lateral to top (BL-AP) transport experiment, the 1.5 mL sample (dissolved in HBSS) was added to the BL side as the supply room, and the 0.5 mL preheated HBSS was added as a receiving room on the AP side. Once the aforementioned steps had been completed, the transwell was placed on a 37 °C thermostatic oscillator at 60 r/min, and 100 μL was withdrawn from the receiving cell or 10 μL from the supply chamber at 30, 60, 90, and 120 min, depending on the experiment, and replenished with an equal volume of blank 37 °C preheated HBSS. The samples were utilized to precipitate the proteins with 100 μL of methanol containing the internal standard for 10 min. After centrifugation at 16,000× g for 15 min at 4 °C, the supernatant was collected in a volume of 70 μL. The contents were determined by UPLC-MS/MS, and apparent permeability coefficients (PAPP) and efflux ratios (ER) were calculated.
(§3) The formulas for calculating Papp and ER of monolayer and monolayer are as follows:(2) Papp=dQ/dt/AC0 wherein dQ/dt (ng/mL·s) is the transit rate (ng/mL·s); A is the membrane area (1.12 cm^2); and C0 (ng/mL) is the initial concentration of the sample in the supply chamber. ER = PappBL-AP/PappAP-BL (3) wherein PappBL-AP is the apparent permeability coefficient when the BL is added to the sample, and PappAP-BL is the apparent permeability coefficient when the sample is added at the top side (AP).

MDCK II-MRP3 = biological target: T2, MDCK II-MRP3 (Homo sapiens, UniProt O15438); assay: as above; conditions: MDCK II-MRP3; high-concentration PEG400 group vs control group
T2 construct: host or cells: MDCK II
Protocol: as §1, §2, §3

[1] = Transport of baicalin across MDCK II-WT cell monolayer (transwell); conditions: dog, MDCK, pH 7.4, MDCK II-WT; for efflux ratio at 120 min, 100 μM: read-out: ER
Protocol: as §1, §2, §3

MDCK II-WT cells = assay: as above; conditions: MDCK II-WT
Protocol: as §1, §2, §3

T1 sequence (O15438 whole entry): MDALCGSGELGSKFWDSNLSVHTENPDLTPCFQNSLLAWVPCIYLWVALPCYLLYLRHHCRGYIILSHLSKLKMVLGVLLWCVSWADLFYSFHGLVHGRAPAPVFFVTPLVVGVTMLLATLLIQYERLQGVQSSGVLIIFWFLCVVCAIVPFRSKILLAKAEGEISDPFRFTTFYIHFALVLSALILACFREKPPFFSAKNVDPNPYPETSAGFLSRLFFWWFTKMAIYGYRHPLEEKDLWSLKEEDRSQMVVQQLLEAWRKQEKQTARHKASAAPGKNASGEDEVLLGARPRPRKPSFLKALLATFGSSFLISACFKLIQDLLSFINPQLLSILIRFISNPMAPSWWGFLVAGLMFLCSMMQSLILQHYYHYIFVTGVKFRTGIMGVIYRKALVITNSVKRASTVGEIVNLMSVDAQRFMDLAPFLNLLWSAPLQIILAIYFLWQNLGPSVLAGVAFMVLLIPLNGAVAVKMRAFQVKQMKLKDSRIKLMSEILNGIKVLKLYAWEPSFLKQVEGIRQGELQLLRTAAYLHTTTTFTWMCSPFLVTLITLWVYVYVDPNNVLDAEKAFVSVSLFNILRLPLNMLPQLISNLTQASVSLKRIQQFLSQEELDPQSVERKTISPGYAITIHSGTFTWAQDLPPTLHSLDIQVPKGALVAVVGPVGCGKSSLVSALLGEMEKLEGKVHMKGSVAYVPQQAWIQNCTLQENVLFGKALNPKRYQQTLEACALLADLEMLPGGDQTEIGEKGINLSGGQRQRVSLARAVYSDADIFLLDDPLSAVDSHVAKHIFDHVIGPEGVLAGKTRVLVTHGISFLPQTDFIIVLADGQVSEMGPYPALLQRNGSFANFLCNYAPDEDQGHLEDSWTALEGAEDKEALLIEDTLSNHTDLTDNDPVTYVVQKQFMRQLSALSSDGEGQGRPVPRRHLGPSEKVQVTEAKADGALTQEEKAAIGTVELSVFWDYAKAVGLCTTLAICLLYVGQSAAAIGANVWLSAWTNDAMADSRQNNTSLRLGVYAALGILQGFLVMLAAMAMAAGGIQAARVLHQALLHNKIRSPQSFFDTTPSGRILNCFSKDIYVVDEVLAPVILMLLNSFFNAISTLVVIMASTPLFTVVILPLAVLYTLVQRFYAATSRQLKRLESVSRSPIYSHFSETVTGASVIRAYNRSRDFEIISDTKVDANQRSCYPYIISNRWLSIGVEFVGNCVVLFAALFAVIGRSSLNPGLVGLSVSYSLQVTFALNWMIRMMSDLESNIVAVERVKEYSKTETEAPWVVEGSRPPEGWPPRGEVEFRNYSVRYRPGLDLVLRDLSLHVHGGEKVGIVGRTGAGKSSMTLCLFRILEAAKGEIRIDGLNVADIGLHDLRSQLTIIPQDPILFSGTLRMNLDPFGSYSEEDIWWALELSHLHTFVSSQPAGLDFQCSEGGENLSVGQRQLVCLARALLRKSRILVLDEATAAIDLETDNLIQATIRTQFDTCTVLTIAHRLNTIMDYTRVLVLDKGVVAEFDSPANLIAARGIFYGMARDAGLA
T2 sequence (O15438 whole entry): as above

SMILES: O=C(O)[C@H]1O[C@@H](Oc2cc3oc(-c4ccccc4)cc(=O)c3c(O)c2O)[C@H](O)[C@@H](O)[C@@H]1O [BG, Baicalein-7-O-β-D-glucuronide]
- Papp A→B at 120 min, 100 μM (MRP3; 100 μM BG + 0.25% PEG400): 1.06 ± 0.16 ×10⁻⁶ cm/s
- Papp B→A at 120 min, 100 μM (MRP3; 100 μM BG + 0.25% PEG400): 1.04 ± 0.08 ×10⁻⁶ cm/s
- Papp A→B at 120 min, 100 μM (MRP3; 100 μM BG + 0.5% PEG400): 1.77 ± 0.2 ×10⁻⁶ cm/s
- Papp B→A at 120 min, 100 μM (MRP3; 100 μM BG + 0.5% PEG400): 0.85 ± 0.1 ×10⁻⁶ cm/s
- Papp A→B at 120 min, 100 μM (MRP3; 100 μM BG + 1% PEG400): 2.65 ± 0.44 ×10⁻⁶ cm/s
- Papp B→A at 120 min, 100 μM (MRP3; 100 μM BG + 1% PEG400): 0.72 ± 0.16 ×10⁻⁶ cm/s
- Papp A→B at 120 min, 100 μM (MRP3; 100 μM BG alone): 0.74 ± 0.1 ×10⁻⁶ cm/s
- Papp B→A at 120 min, 100 μM (MRP3; 100 μM BG alone): 1.18 ± 0.08 ×10⁻⁶ cm/s
- increase in the PAPPAP-BL/PAPP BL-AP ratio (MDCK II-MRP3): 5.97 fold
- Papp A→B at 120 min, 100 μM ([1]; 100 μM BG + 0.25% PEG400): 4.57 ± 1.08 ×10⁻⁶ cm/s
- Papp B→A at 120 min, 100 μM ([1]; 100 μM BG + 0.25% PEG400): 7.94 ± 0.99 ×10⁻⁶ cm/s
- efflux ratio at 120 min, 100 μM ([1]; 100 μM BG + 0.25% PEG400): 1.94 ± 0.27
- Papp A→B at 120 min, 100 μM ([1]; 100 μM BG + 0.5% PEG400): 5.24 ± 0.53 ×10⁻⁶ cm/s
- Papp B→A at 120 min, 100 μM ([1]; 100 μM BG + 0.5% PEG400): 6.78 ± 1.19 ×10⁻⁶ cm/s
- efflux ratio at 120 min, 100 μM ([1]; 100 μM BG + 0.5% PEG400): 1.53 ± 0.14
- Papp A→B at 120 min, 100 μM ([1]; 100 μM BG + 1% PEG400): 5.47 ± 0.94 ×10⁻⁶ cm/s
- Papp B→A at 120 min, 100 μM ([1]; 100 μM BG + 1% PEG400): 3.61 ± 0.26 ×10⁻⁶ cm/s
- efflux ratio at 120 min, 100 μM ([1]; 100 μM BG + 1% PEG400): 1.19 ± 0.12
- Papp A→B at 120 min, 100 μM ([1]; 100 μM BG alone): 3.18 ± 0.07 ×10⁻⁶ cm/s
- Papp B→A at 120 min, 100 μM ([1]; 100 μM BG alone): 11.6 ± 1 ×10⁻⁶ cm/s
- efflux ratio at 120 min, 100 μM ([1]; 100 μM BG alone): 2.58 ± 0.27
- ER (MDCK II-WT cells; 100 μM BG + 0.25% PEG400): 1.8 ± 0.44
- ER (MDCK II-WT cells; 100 μM BG + 0.5% PEG400): 1.29 ± 0.11
- ER (MDCK II-WT cells; 100 μM BG + 1% PEG400): 0.67 ± 0.07
- ER (MDCK II-WT cells; 100 μM BG alone): 3.64 ± 0.28
